Measurements from patent publication US7186743B2, “Substituted pyrazolyl compounds for the treatment of inflammation” (Pharmacia Corporation, priority 2001, dated 2007).
Where a name gives a salt, the structure may show the parent alone. Read-outs that look alike come from different tables or passages of the source.

Target: T1, IKK2 (Homo sapiens, UniProt O14920)
T1 construct: made in house; host or cells: insect cells (baculovirus, pFastBac; SF9)
T1 sequence (O14920 1-756): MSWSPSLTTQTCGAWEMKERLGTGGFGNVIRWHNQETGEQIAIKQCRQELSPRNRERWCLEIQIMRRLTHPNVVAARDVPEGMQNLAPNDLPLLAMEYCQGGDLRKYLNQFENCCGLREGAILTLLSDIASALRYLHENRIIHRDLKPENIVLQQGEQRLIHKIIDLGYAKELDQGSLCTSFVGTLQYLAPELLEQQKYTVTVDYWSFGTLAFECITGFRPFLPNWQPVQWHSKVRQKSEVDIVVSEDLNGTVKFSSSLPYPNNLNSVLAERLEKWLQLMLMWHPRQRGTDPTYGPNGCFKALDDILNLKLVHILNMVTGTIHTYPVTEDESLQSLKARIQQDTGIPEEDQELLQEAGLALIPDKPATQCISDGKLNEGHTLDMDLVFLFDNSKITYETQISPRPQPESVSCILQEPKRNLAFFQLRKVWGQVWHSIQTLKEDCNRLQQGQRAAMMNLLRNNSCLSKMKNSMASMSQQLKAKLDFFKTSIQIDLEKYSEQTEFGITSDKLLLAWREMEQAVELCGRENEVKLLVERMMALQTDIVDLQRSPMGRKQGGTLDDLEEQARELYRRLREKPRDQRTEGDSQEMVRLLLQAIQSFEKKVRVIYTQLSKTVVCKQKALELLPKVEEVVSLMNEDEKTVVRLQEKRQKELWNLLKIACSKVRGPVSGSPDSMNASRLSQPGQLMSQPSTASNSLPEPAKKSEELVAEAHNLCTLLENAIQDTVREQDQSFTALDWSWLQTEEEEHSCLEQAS
Test: IKKβ Resin Enzyme Assay (IKK2 resin)
Type: biochemical
How it was run: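 Enzyme: human IKK2 with a C-terminal FLAG tag, baculovirus-expressed, purified as homodimer on anti-FLAG resin. It phosphorylates a biotinylated IκBα peptide with 1 μM ATP plus [γ-33P]ATP in 25 mM Hepes pH 7.6, Mg/Mn, for 30 min at 25° C. Incorporation is counted by scintillation after anion-exchange resin stop.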

[1] = Table 14, read-out: IKK2 Resin IC50
[2] = Table 2, read-out: IKK Resin IC50
[3] = Table 4, read-out: IKK2 Resin IC50
[4] = Table 11, read-out: IKK2 Resin IC50
[5] = Table 10, read-out: IKK2 Resin IC50
[6] = Table 12, read-out: IKK2 Resin IC50
[7] = Table 6, read-out: IKK2 Resin IC 50

In the case of `NC(=O)c1nn(-c2ccc(N)cc2)c2c1CCc1ccc(NC(=O)c3ccccc3Cl)cc1-2` [Example 370, 1-(4-aminophenyl)-8-[(2-chlorobenzoyl)amino]-4,5-dihydro-1H-benzo[g]indazole-3-carboxamide], the IC50 (Table 15, read-out: IKK2 Resin IC50) is reported as no more than 1 µM.
Work on `NC(=O)c1nn(-c2ccc(S(=O)(=O)C(F)(F)F)cc2)c2c1CCc1ccc(NC(=O)c3ccncc3Cl)cc1-2` [Example 358, 8-[(3-chloroisonicotinoyl)amino]-1-{4-[(trifluoromethyl)sulfonyl]phenyl}-4,5-dihydro-1H-benzo[g]indazole-3-carboxamide hydrochloride] yielded an IC50 [1] of no more than 1 µM.
In the case of `CS(=O)(=O)c1ccc(-n2nc(C(N)=O)c3c2-c2cc(NC(=O)c4cc([N+](=O)[O-])ccc4Cl)ccc2CC3)cc1` [Example 111, 8-[(2-chloro-5-nitrobenzoyl)amino]-1-[4-(methylsulfonyl)phenyl]-4,5-dihydro-1H-benzo[g]indazole-3-carboxamide], the IC50 [2] is reported as no more than 1 µM.
Work on `NC(=O)c1nn(-c2ccc3c(c2)OCO3)c2c1CCc1ccc(NC(=O)c3cc(N)ccc3Cl)cc1-2` [Example 172, 8-[(5-amino-2-chlorobenzoyl)amino]-1-(1,3-benzodioxol-5-yl)-4,5-dihydro-1H-benzo[g]indazole-3-carboxamide] yielded an IC50 [3] of no more than 1 µM.
In the case of `NC(=O)c1nn(-c2ccccc2)c2c1CCc1ccc(NC(=O)c3ccccc3Cl)cc1-2` [Example 328, 8-[(2-chlorobenzoyl)amino]-1-phenyl-4,5-dihydro-1H-benzo[g]indazole-3-carboxamide], the IC50 [1] is reported as no more than 1 µM.
`NC(=O)c1nn(-c2ccc3c(c2)OCO3)c2c1CCc1ccc(NC(=O)c3ccc(N)cc3Cl)cc1-2` [Example 180, 8-[(4-amino-2-chlorobenzoyl)amino]-1-(1,3-benzodioxol-5-yl)-4,5-dihydro-1H-benzo[g]indazole-3-carboxamide] was tested, and the IC50 [3] was no more than 1 µM.
Work on `CC(=O)CCc1ccc(-n2nc(C(N)=O)c3c2-c2cc(NC(=O)c4ccccc4Cl)ccc2CC3)cc1` [Example 296, 8-[(2-chlorobenzoyl)amino]-1-[4-(3-oxobutyl)phenyl]-4,5-dihydro-1H-benzo[g]indazole-3-carboxamide] yielded an IC50 [4] of no more than 1 µM.
`NC(=O)c1nn(-c2cccc(O)c2)c2c1CCc1ccc(NC(=O)c3cc4c(cc3Cl)OCO4)cc1-2` [Example 277, 8-{[(6-chloro-1,3-benzodioxol-5-yl)carbonyl]amino}-1-(3-hydroxyphenyl)-4,5-dihydro-1H-benzo[g]indazole-3-carboxamide] was tested, and the IC50 [5] was no more than 1 µM.
In the case of `NC(=O)c1nn(-c2ccc(N3CCOCC3)cc2)c2c1CCc1ccc(NC(=O)c3cccnc3Cl)cc1-2` [Example 288, 8-{[(2-chloropyridin-3-yl)carbonyl]amino}-1-(4-morpholin-4-ylphenyl)-4,5-dihydro-1H-benzo[g]indazole-3-carboxamide], the IC50 (read-out: IKK-2 resin IC50) is reported as 1 to 10 µM.
`COCCNC(=O)/C=C/c1ccc(-n2nc(C(N)=O)c3c2-c2cc(NC(=O)c4ccccc4Cl)ccc2CC3)cc1` [Example 309, 8-[(2-chlorobenzoyl)amino]-1-(4-{(1E)-3-[(2-methoxyethyl)amino]-3-oxoprop-1-enyl}phenyl)-4,5-dihydro-1H-benzo[g]indazole-3-carboxamide] gave an IC50 [6] of no more than 1 µM.
Work on `NC(=O)c1nn(-c2ccc(F)cc2F)c2c1CCc1ccc(NC(=O)c3ccccc3Cl)cc1-2` [Example 353, 8-[(2-chlorobenzoyl)amino]-1-(2,4-difluorophenyl)-4,5-dihydro-1H-benzo[g]indazole-3-carboxamide] yielded an IC50 [1] of no more than 1 µM.
In the case of `NC(=O)c1nn(-c2ccc(F)c(F)c2)c2c1CCc1ccc(NC(=O)c3ccncc3Cl)cc1-2` [Example 354, 8-[(3-chloroisonicotinoyl)amino]-1-(3,4-difluorophenyl)-4,5-dihydro-1H-benzo[g]indazole-3-carboxamide], the IC50 [1] is reported as no more than 1 µM.
`NC(=O)c1nn(-c2ccc(CCC(=O)CO)cc2)c2c1CCc1ccc(NC(=O)c3ccccc3Cl)cc1-2` [Example 299, 8-[(2-chlorobenzoyl)amino]-1-[4-(4-hydroxy-3-oxobutyl)phenyl]-4,5-dihydro-1H-benzo[g]indazole-3-carboxamide] showed an IC50 [4] of no more than 1 µM.
`NC(=O)c1nn(-c2ccc(/C=C/C(=O)O)cc2)c2c1CCc1ccc(NC(=O)c3ccccc3Cl)cc1-2` [Example 291, (2E)-3-(4-{3-(aminocarbonyl)-8-[(2-chlorobenzoyl)amino]-4,5-dihydro-1H-benzo[g]indazol-1-yl}phenyl)prop-2-enoic acid] showed an IC50 [4] of no more than 1 µM.
With `CS(=O)(=O)c1ccc(-n2nc(C(N)=O)c3c2-c2cc(NC(=O)c4ccccc4F)ccc2CC3)cc1` [Example 97, 8-[(2-fluorobenzoyl)amino]-1-[4-(methylsulfonyl)phenyl]-4,5-dihydro-1H-benzo[g]indazole-3-carboxamide] the IC50 [2] was no more than 1 µM.
`CS(=O)(=O)c1ccc(-n2nc(C(N)=O)c3c2-c2cc(NC(=O)c4cc(N)ccc4Cl)ccc2CC3)cc1` [Example 112, 8-[(5-amino-2-chlorobenzoyl)amino]-1-[4-(methylsulfonyl)phenyl]-4,5-dihydro-1H-benzo[g]indazole-3-carboxamidehydrochloride] showed an IC50 [2] of no more than 1 µM.
Molecule `NC(=O)c1nn(-c2ccc3c(c2)OCO3)c2c1CCc1ccc(NC(=O)c3ccncc3)cc1-2` [Example 196, 1-(1,3-benzodioxol-5-yl)-8-(isonicotinoylamino)-4,5-dihydro-1H-benzo[g]indazole-3-carboxamide] has an IC50 [3] of no more than 1 µM.
`COc1cc(Cl)c(C(=O)Nc2ccc3c(c2)-c2c(c(C(N)=O)nn2-c2ccc4c(c2)OCO4)CC3)cc1OC` [Example 174, 1-(1,3-benzodioxol-5-yl)-8-[(2-chloro-4,5-dimethoxybenzoyl)amino]-4,5-dihydro-1H-benzo[g]indazole-3-carboxamide] was tested, and the IC50 [3] was no more than 1 µM.
With `NC(=O)c1nn(-c2cccc(O)c2)c2c1CCc1ccc(NC(=O)c3cccnc3Cl)cc1-2` [Example 284, 8-{[(2-chloropyridin-3-yl)carbonyl]amino}-1-(3-hydroxyphenyl)-4,5-dihydro-1H-benzo[g]indazole-3-carboxamide] the IC50 [5] was no more than 1 µM.
Molecule `CCNC(=O)/C=C/c1ccc(-n2nc(C(N)=O)c3c2-c2cc(NC(=O)c4ccccc4Cl)ccc2CC3)cc1` [Example 312, 8-[(2-chlorobenzoyl)amino]-1-{4-[(1E)-3-(ethylamino)-3-oxoprop-1-enyl]phenyl)-4,5-dihydro-1H-benzo[g]indazole-3-carboxamidee] has an IC50 [6] of no more than 1 µM.
`Cc1ccc(C(=O)Nc2ccc3c(c2)-c2c(c(C(N)=O)nn2-c2ccc(F)cc2)CC3)c(Cl)n1` [Example 227, 8-{[(2-chloro-6-methylpyridin-3-yl)carbonyl]amino}-1-(4-fluorophenyl)-4,5-dihydro-1H-benzo[g]indazole-3-carboxamide] gave an IC50 [7] of no more than 1 µM.
Work on `NC(=O)c1nn(-c2ccc(F)cc2)c2c1CCc1ccc(NC(=O)c3cc(N4CCNCC4)ncc3Cl)cc1-2` [Example 253, 8-[(5-chloro-2-piperazin-1-ylisonicotinoyl)amino]-1-(4-fluorophenyl)-4,5-dihydro-1H-benzo[g]indazole-3-carboxamide] yielded an IC50 (Table 7, read-out: IKK2 Resin IC50) of no more than 1 µM.
Work on `NC(=O)c1nn(-c2ccc(F)cc2)c2c1CCc1ccc(NC(=O)c3ccccc3Cl)cc1-2` [Example 230, 8-[(2-chlorobenzoyl)amino]-1-(4-fluorophenyl)-4,5-dihydro-1H-benzo[g]indazole-3-carboxamide] yielded an IC50 [7] of no more than 1 µM.
Work on `NC(=O)c1nn(-c2ccncc2)c2c1CCc1ccc(NC(=O)c3ccccc3Cl)cc1-2` [Example 338, 8-[(2-chlorobenzoyl)amino]-1-pyridin-4-yl-4,5-dihydro-1H-benzo[g]mdazole-3-carboxamide] yielded an IC50 [1] of no more than 1 µM.
Work on `CC(C)(O)/C=C/c1ccc(-n2nc(C(N)=O)c3c2-c2cc(NC(=O)c4ccccc4Cl)ccc2CC3)cc1` [Example 289, 8-[(2-chlorobenzoyl)amino]-1-{4-[(1E)-3-hydroxy-3-methylbut-1-enyl]phenyl}-4,5-dihydro-1H-benzo[g]indazole-3-carboxamide] yielded an IC50 [4] of no more than 1 µM.
Molecule `NC(=O)c1nn(-c2ccc(F)cc2)c2c1CCc1ccc(NC(=O)c3cc(N)ccc3Cl)cc1-2` [Example 236, 8-[(5-amino-2-chlorobenzoyl)amino]-1-(4-fluorophenyl)-4,5-dibydro-1H-benzo[g]indazole-3-carboxamide] has an IC50 [7] of no more than 1 µM.
In the case of `Cc1ccnc(Cl)c1C(=O)Nc1ccc2c(c1)-c1c(c(C(N)=O)nn1-c1cccc(O)c1)CC2` [Example 287, 8-{[(2-chloro-4-methylpyridin-3-yl)carbonyl]amino}-1-(3-hydroxyphenyl)-4,5-dihydro-1H-benzo[g]indazole-3-carboxamide], the IC50 [5] is reported as no more than 1 µM.
